Measurements: US9833518B2, “Heteromultivalent particle compositions” (CASE WESTERN RESERVE UNIVERSITY, priority 2012, dated 2017)

How the values were obtained:
[1] = tested on: fibrinogen-mediated platelet aggregation; test: Aggregometry assay of free peptides in platelet-rich plasma; assay type: cell-based, human
Procedure: Affinity of free lRGD and cRGD peptides to bind activated platelets was characterized by ‘half maximal Inhibitory Concentration’ (IC50) value, which, in our assays, was the concentration of peptide required to inhibit fibrinogen-mediated platelet aggregation in platelet-rich plasma (PRP) by 50%, in an aggregometry (Bio/Data, PAP-4) set-up. PRP was prepared from citrated human whole blood by centrifugation at 800 RPM for 15 min at 25° C. 50 μl aliquots of PRP were warmed to 37° C. for 2 minutes, incubated with various concentrations of lRGD and cRGD peptide in the presence of agonist adenosine di-phosphate (ADP, 10 μM) and the maximal aggregation percentage was determined while stifling for 15 min. Consequently, from the maximal aggregation percentage and comparison to aggregation without peptides, inhibition percentage was determined.

GPIIb-IIIa (αIIbβ3) = GPIIb-IIIa (αIIbβ3) (Homo sapiens, UniProt P05106+P08514); settings: reported in literature; cited from earlier work
GPIIb-IIIa (αIIbβ3), sequence (P08514 32-887 limits assumed): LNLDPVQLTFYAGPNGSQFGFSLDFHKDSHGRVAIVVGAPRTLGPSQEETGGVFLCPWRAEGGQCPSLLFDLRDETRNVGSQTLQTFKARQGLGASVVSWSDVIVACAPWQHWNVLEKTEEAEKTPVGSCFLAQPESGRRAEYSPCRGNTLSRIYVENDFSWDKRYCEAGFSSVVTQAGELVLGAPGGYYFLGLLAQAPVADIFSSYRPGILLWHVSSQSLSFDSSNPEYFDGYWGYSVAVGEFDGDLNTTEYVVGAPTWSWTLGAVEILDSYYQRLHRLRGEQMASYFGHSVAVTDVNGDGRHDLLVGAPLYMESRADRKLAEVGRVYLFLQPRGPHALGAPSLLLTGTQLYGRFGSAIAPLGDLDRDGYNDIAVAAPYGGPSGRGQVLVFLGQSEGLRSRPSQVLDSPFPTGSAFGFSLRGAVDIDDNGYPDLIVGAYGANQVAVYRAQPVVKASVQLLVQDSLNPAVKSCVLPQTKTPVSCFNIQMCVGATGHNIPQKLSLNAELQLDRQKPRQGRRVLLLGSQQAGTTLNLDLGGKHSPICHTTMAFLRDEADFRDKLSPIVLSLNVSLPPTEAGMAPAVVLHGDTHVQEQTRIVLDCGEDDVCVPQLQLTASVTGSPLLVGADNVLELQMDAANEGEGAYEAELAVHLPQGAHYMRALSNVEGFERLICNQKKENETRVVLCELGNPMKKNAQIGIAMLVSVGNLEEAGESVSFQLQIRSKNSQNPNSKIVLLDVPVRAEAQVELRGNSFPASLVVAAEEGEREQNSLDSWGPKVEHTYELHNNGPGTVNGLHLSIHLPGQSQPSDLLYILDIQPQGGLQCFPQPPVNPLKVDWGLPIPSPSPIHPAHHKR
GPIIb-IIIa (αIIbβ3), sequence (P08514 891-1039 partner limits assumed): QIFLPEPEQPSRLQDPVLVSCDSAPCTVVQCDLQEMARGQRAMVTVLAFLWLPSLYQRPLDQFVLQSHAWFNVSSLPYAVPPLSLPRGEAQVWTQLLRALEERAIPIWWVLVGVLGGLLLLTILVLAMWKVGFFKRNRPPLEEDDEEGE
GPIIb-IIIa (αIIbβ3), sequence (P05106 27-788): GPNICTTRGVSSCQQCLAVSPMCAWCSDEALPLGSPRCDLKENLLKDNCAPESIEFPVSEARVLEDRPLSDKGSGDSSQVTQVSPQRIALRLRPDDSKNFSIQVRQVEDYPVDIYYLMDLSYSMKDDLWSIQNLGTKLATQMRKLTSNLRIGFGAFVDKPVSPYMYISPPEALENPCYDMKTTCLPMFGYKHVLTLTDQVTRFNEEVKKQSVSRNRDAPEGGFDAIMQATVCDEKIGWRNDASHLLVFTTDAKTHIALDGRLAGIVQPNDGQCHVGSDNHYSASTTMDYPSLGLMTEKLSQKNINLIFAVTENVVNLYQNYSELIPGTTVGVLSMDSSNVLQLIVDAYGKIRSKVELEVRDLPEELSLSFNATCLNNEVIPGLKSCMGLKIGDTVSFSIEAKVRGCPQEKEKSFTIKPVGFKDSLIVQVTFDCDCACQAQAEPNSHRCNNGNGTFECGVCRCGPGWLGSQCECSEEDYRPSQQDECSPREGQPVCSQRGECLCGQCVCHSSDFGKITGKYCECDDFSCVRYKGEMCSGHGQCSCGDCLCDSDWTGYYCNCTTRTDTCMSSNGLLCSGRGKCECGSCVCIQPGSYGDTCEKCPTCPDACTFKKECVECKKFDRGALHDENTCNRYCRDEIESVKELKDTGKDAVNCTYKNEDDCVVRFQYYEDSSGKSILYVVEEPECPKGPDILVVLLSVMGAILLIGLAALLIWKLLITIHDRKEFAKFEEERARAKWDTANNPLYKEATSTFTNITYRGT

## cyclo-CNPRGDY(-OEt)RC [cRGD]
[1]; FIG. 18 legend
  IC50 by aggregometry, lower compared to lRGD: ~2 orders of magnitude
[1]; PRP, ADP 10 μM, 37° C.
  IC50 (inhibition of platelet aggregation) relative to lRGD: about 1000 times lower
GPIIb-IIIa (αIIbβ3)
  affinity and selectivity for GPIIb-IIIa compared with αvβ3, αvβ5 and α5β1: high affinity and selectivity for GPIIb-IIIa
